# Test results reported in EP4732839A1, “USE OF COMPOUND IN TREATMENT OF LIVER DISEASES” (priority 2023, dated 2025).
# Columns and labels:
# [1] = Liver tissue distribution after single intragastric administration; details: for Mean drug concentration (liver) / Mean drug concentration (plasma) / AUC(0-t) at 24 h: 10 mg/kg single intragastric, ICR mice; for AUC(0-t) at 24 h: in vivo, area under curve at 24 h post-dose
# Experimental: The specific regimen was as follows: Before administration, the state of the formulation for administration was inspected, and the homogeneity of the formulation was ensured by vortexing, stirring, or shaking. The theoretical dose for each mouse was calculated according to the following formula. The actual dose for each ICR mouse and the collection time for plasma and tissue samples were required to be recorded in detail in corresponding tables. Theoretical administration volume (mL) = ((Dose(mg⋅kg^−1))/(Concentration of test solution (mg⋅((mL))^−1))) × Animal body weight (kg) [formula]
# Plasma sample collection: At each designated time point, about 100 µL of blood was collected from the orbit, and the collected whole blood was placed in an EDTA-K2 anticoagulation tube, inverted several times to mix thoroughly, stored on wet ice, and centrifuged (at 1500 g to 1600 g) for 10 min within 30 min to separate the plasma. The resulting plasma sample was stored at -40 °C to -20 °C for biological sample analysis.
# The specific procedures for liver tissue collection were as follows: Liver tissues were collected immediately after whole blood collection. The liver tissues were collected, washed with ice-cold normal saline, dehydrated, weighed, and homogenized in 20% methanol-water at a ratio of 1:5 (w/v). The collection time of tissues and the weight of homogenized tissues were required to be recorded in detail in corresponding tables.
# The plasma and various tissue homogenates were stored in a refrigerator at -40 °C to -20 °C for sample analysis. After the experiment was completed, the mice were euthanized by carbon dioxide asphyxiation or cervical dislocation. After the analysis was completed, the samples were returned to the biological sample room, and transferred to an environment at -40 °C to -20 °C for storage according to SOP-SM-001.
# The corresponding pharmacokinetic parameters of plasma and liver tissues were calculated using a non-compartmental model in Phoenix WinNonlin 8.0 or later versions, and the area under curve AUC0-t (AUC0-t, the area under the concentration-time curve at 24 h post-dose) was calculated. The liver/plasma drug distribution ratio (RL/P) was then calculated.
# [2] = tested on: IFN-α, IP-10, IL-6, and TNF-α; assay: Liver safety: cytokine ELISA in liver tissue; type: in vivo, C57BL/6J wild-type female mice; details: 1 h, 2 h, 4 h
# Experimental: (§1) C57BL/6J wild-type female mice (6 weeks old) were randomly grouped. After administration at different doses, whole blood and liver tissues of the mice were separately collected at 1 h, 2 h, and 4 h for detection of a plurality of parameters to evaluate the effect of the drugs on the liver.
# (§2) Liver tissues and blood were collected at 1 h, 2 h, and 4 h after single dosing.
# (§3) The supernatant was collected and stored (-20 °C); • (3) IFN-α, IP-10, IL-6, and TNF-α were detected using an ELISA kit. • (C) Remaining liver tissue-HE staining and pathological evaluation. • (D) 1/2 blood (whole blood)-liver function parameter detection: AST (aspartate aminotransferase), ALT (alanine aminotransferase/glutamate pyruvate transaminase), ALP (alkaline phosphatase), ALB (albumin), and GGT (γ-glutamyl transferase). • (E) 1/2 blood-serum preparation-reserve for ELISA.
# [3] = tested on: ISG15, ISG56, Mx1, and Oaslb; assay: Liver safety: qPCR of interferon-related genes in liver tissue; type: in vivo, C57BL/6J wild-type female mice; details: dose of 3 mpk (pharmacodynamic dose)
# Experimental: as §1, §2, §3
# [4] = type: in vivo, C57BL/6J wild-type female mice
# Experimental: as §1, §2, §3
# Hep3B-luc = Hep3B-luc liver orthotopic xenograft mouse model; details: Hep3B-luc liver orthotopic tumor model, 3 mg/kg
# hERG potassium channel = hERG potassium channel (Homo sapiens, UniProt Q12809); assay: hERG whole-cell patch-clamp; type: cell-based
# hERG potassium channel, sequence (Q12809 whole entry): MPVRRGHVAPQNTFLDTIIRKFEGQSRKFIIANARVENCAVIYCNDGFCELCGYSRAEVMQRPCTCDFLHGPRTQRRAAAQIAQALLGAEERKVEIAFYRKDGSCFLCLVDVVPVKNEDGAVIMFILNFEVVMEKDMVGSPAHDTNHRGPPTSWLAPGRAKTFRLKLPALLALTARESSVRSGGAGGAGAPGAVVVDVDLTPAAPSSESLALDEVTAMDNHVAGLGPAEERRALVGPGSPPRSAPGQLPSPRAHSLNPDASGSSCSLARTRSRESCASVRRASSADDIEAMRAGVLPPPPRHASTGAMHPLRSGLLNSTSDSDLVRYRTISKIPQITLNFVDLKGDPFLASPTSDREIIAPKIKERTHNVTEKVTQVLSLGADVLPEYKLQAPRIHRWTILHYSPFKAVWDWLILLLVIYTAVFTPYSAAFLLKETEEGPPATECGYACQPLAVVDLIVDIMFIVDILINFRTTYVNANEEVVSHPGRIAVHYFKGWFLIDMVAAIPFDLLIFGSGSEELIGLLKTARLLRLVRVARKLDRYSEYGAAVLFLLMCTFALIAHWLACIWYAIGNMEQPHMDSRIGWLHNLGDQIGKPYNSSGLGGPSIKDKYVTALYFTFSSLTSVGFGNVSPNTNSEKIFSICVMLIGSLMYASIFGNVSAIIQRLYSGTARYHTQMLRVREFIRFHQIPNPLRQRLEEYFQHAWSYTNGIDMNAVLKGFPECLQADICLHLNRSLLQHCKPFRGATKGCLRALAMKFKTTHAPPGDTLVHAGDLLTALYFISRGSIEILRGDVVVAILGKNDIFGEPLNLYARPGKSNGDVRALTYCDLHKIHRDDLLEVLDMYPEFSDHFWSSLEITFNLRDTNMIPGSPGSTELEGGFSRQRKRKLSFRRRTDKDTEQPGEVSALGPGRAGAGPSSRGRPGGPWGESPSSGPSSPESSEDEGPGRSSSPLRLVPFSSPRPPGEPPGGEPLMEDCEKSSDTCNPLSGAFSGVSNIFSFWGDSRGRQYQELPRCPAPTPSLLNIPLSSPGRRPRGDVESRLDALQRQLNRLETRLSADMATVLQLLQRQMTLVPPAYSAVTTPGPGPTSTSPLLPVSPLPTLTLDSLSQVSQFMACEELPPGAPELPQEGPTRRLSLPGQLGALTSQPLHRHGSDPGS
# Source text: The rapidly activated potassium channel encoded by human ether-a-go-go-related gene (hERG) is an important ion channel involved in the formation of cardiac action potential phase 3 repolarization. Drug-induced blockade of hERG channels can lead to delayed cardiac repolarization, manifested as QT interval prolongation on the electrocardiogram, known as long QT syndrome. Drug-induced delayed ventricular repolarization may, under certain circumstances, trigger fatal arrhythmias-torsade de pointes-type ventricular tachycardia. In this study, the whole-cell patch-clamp technique (the standard method for hERG safety assessment) was employed to evaluate the inhibitory effects of the small-molecule compounds on the hERG potassium channel and to assess the risk of ventricular repolarization toxicity.
# in vivo = assay: in vivo
# Experimental: C57BL/6 mice, 8 weeks old, female/male, 27, supplier: SPF (Beijing) Biotechnology Co., Ltd.
# The body weight of the animals was measured and recorded daily.
# All groups were subjected to clinical observations before administration and 1 to 2 h after administration, and additional observations were performed if necessary. Deaths and mortality were checked twice daily. The observations should include, but are not limited to, the following: fur condition, activity, mental status, vomiting, diarrhea, and abnormal secretions around the eyes. All animals should be observed on the day of necropsy, and any abnormal findings should be recorded.
# The rectal temperature of all animals was measured and recorded at 0 h before administration and at 2 h, 4 h, 8 h and 24 h after administration.
# The experiment was terminated on day 7 after administration. A gross necropsy was performed to examine abdominal and thoracic organs for lesions, and the spleen and liver were collected for weighing.
# H22-luc = H22-luc orthotopic model, 3 mpk, IG
# Experimental: The cells were placed in an incubator at 37 °C with 5% CO2 and passaged every 1 to 2 days depending on the cell density.
# The cell concentration (H22-luc, 2.0E8/mL) was adjusted, and the cells were mixed well with Matrigel at a ratio of 1:1. The mixture was placed on ice for subsequent injection experiments, and was mixed thoroughly by shaking with Vortex before use.
# • (1) The mice were weighed before surgery and anesthetized by intraperitoneal injection of avertin at 0.15 mL/10 g body weight. […] The needle was inserted into the liver at a 30-degree angle relative to the liver surface. After the needle was inserted, the needle was made parallel to the tabletop and advanced in parallel for about 3 mm. 10 µL of H22-luc cell suspension was slowly injected, and a rapid whitening (white plaque) or turbid translucent vacuolation over most of the liver lobe in the injection area was observed. • (5) After injection, a cotton swab was used to apply slight pressure at the needle insertion site while the needle was slowly withdrawn. The cotton swab was removed until no bleeding was observed. • (6) The liver lobe was gently pushed back into the abdominal cavity, and the muscle layer and skin were sutured.
# The experimental data were analyzed using Graphpad Prism 8. The experimental data were expressed as mean ± SD.
# in vitro = details: human, microsomes, pH 7.4
# Experimental: The metabolic stability of the compounds in in vitro liver microsomes was evaluated. The procedures and steps were as follows: At 37 °C, 1 µM of the compounds was incubated in 1 mg/mL liver microsomes. The reaction system was a 0.1 M potassium phosphate buffer (pH 7.4) containing 3 mmol/L MgCl2 and 1 mmol/L NADPH. At the beginning of the reaction, the small molecules and the liver microsomes were pre-incubated at 37 °C for 10 min, and subsequently a cofactor NADPH was added to initiate the metabolic reaction. The reaction was quenched at 0 min, 5 min, 10 min, 20 min, 30 min, and 60 min using three volumes of ice-cold methanol containing an internal standard (200 nM labetalol). After incubation at room temperature for 10 min, the samples were centrifuged at 4000 rpm at 4 °C for 20 min, and the supernatants were collected, diluted with chromatography-grade purified water in a 1:1 ratio, and then subjected to quantitative analysis. […] After a 6-minute chromatographic separation on a C18 column (50 × 2.1 mm; 2.6 µm) under a gradient mobile phase of 0.1% formic acid in water, the peaks corresponding to specified ionic signals were detected. […] The detailed operation process was as follows: • 1) The compound working solution was added to all 96-well reaction plates (T0, T5, T10, T20, T30, and T60) at 10 µL/well, except the blank wells. • 2) The microsomal solution was added to all the reaction wells (T0, T5, T10, T20, T30, T60, and blank wells) at 80 µL/well. • 3) The plates were pre-incubated at 37 °C for 10 min. • 4) After pre-incubation, NADPH was added to each reaction plate at 10 µL/well to initiate the reaction. • 5) At the set end time point, a 4 °C methanol solution (containing an internal standard: 200 nM labetalol) was added to each reaction plate at 300 µL/well to quench the reaction. • 6) Each plate was sealed and shaken for 10 min. • 7) The mixture was shaken well and centrifuged at 4000 rpm at 4 °C for 20 min. • 8) 300 µL of the supernatant was collected, and HPLC-grade water was added at 300 µL/well. The mixture was well mixed and then subjected to LC-MS analysis.
# The metabolic half-life (T1/2) and the metabolic clearance rate (CLint(mic)) (µL/min/mg) were calculated using a first-order kinetic equation.
# hepatitis B virus (HBV) = assay: Anti-hepatitis B virus activity in HBV-infected primary human hepatocytes; type: cell-based, HBV type B; details: HBV-infected PHHs, agonist-treated PBMC supernatant (donor 1) or reference compound
# Experimental: The culture supernatant from one donor (donor 1) was selected to stimulate HBV-infected primary hepatocytes (PHHs), and interferon α and nucleoside analog entecavir (ETV) were selected as positive controls. The experimental procedures were as follows (FIG. 14a), and the detailed procedures were as follows: On day -1, cryopreserved PHHs were thawed and adjusted to a density of 6 × 10^5 cells/mL, and the PHHs were seeded into a 48-well plate at 0.22 mL/well.
# On day 0, the PHHs were infected with HBV type B at 600 GE/cells.
# On day 1, the culture medium was replaced with a fresh one, and reference compounds ETV and Peg-IFN-α2a (Pegasys-Roche) were added to the cells to treat the cells. The reference compounds ETV and Peg-IFN-α2a for the PHHs were each prepared at one concentration, with three replicate wells.
# The PBMC supernatants were each prepared at 4 test concentrations, diluted at a ratio of 1:4, and then added to the cells. Three replicate wells were made for each test condition. The culture medium was replaced with a fresh culture medium containing the PBMC supernatants and the reference compounds on days 5, 7, 9, and 11. On day 13, the cell supernatants were collected and the cell viability was detected using CCK-8.
# The content of HBV DNA in the supernatants was determined by qPCR according to the kit instructions. HBsAg and HBeAg levels in the supernatants were determined by ELISA.
# [5] = tested on: Peripheral blood mononuclear cells (hPBMCs); assay: Cytokine secretion after stimulation of PBMCs; details: hPBMCs from 3 donors, 24 h of stimulation
# [6] = tested on: advanced unresectable HCC; details: cited from earlier work
# [7] = tested on: advanced hepatocellular carcinoma (aHCC); details: first-line aHCC; nivolumab 240 mg intravenous drip once every 2 weeks; sorafenib 400 mg oral twice daily; cited from earlier work
# [8] = C57BL/6 mice, single intragastric administration
# [9] = ICR, mouse, liver, oral, 10 mg/kg
# [10] = ICR, mouse, liver/plasma, oral, 10 mg/kg
# [11] = ICR, mouse, plasma, oral, 10 mg/kg
compound,measurement,setting,value
COCCNc1nc(N)nc2ccc(Cc3ccc(CN(C)C)cc3)nc12 [Compound I],Mean drug concentration (liver),[1]; 0.25h,3416 ng/g
same,Mean drug concentration (plasma),[1]; 0.25h,45.4 ng/mL
same,Mean drug concentration (liver),[1]; 1 h,2340 ng/g
same,Mean drug concentration (plasma),[1]; 1 h,25.9 ng/mL
same,Mean drug concentration (liver),[1]; 4h,263 ng/g
same,Mean drug concentration (plasma),[1]; 4h,10.7 ng/mL
same,Mean drug concentration (liver),[1]; 24h,35.6 ng/g
same,Mean drug concentration (plasma),[1]; 24h,1.49 ng/mL
same,AUC(0-t) at 24 h,"[1]; mouse, po, 10 mg/kg, AUC0-t (liver)",9480 ng·h/mL
same,AUC(0-t) at 24 h,"[1]; mouse, po, 10 mg/kg, AUC0-t (plasma)",206 ng·h/mL
same,expression level of IP-10,[2]; 3 mpk i.g. single dose,"increased first, then decreased, and then increased from 1 h to 4 h"
same,"expression levels of IL-6, TNF-α, and IFN-α",[2]; 3 mpk i.g. single dose,decreased from 1 h to 4 h
same,expression level of IP-10,[2]; 10 mpk i.g. single dose,peaked at 2 h and decreased at 4 h
same,"expression levels of IL-6, TNF-α, and IFN-α",[2]; 10 mpk i.g. single dose,increased from 1 h to 4 h
same,"expression levels of IL-6, TNF-α, IFN-α, and IP-10",[2]; 20 mpk i.g. single dose,"peaked at 2 h, and decreased at 4 h"
same,mRNA expression level of interferon-related genes,[3],significantly induced an increase
same,ALB level,[4]; 10 mpk group at 2 h,significantly lower than that of the control group
same,AST levels,"[4]; all administration groups, no statistically significant differences",exceeded the normal reference range
same,ALP levels,[4]; all dose groups,within the normal reference value range
same,GGT levels,[4]; all dose groups,within the normal reference value range
same,ALT elevation by clinical adverse reaction grading,"[4]; single administration, Grade 1 AE = ALT exceeding three times the normal value",did not result in ALT elevation to grade 1 AE
same,ALT,"[4]; whole blood, 3/10/20 mpk i.g. single dose, 1 h, 2 h, 4 h",increased in all groups
same,maximum body weight loss,Hep3B-luc,8.0%
same,IC50,hERG potassium channel,17.2 µM
same,Gross necropsy,"in vivo; 10 mg/kg, group 1, male animal No. 46",enlarged spleen
same,Cage-side observation,"in vivo; 10 mg/kg, group 1, male animal No. 46, day 2",mild hunched posture
same,Gross necropsy,"in vivo; 40 mg/kg, group 4, female animal No. 2",enlarged spleen
same,rectal temperature,"in vivo; 2 h after treatment, significant difference vs vehicle group, returned to normal 4 h, 8 h and 24 h",decreased
same,Adverse reactions at maximum tolerated dose/probability,in vivo; [8],No
same,Weight loss at maximum tolerated dose: whether recovered,in vivo; [8],Yes
same,Weight loss rate at maximum tolerated dose,in vivo; [8],12.5%
same,With or without mouse death,in vivo; [8],No
same,spleen weight,"in vivo; female animals, 30 mg/kg, compared with vehicle group",significantly increased
same,body weight,"in vivo; male and female animals, 10-40 mg/kg single administration, began to recover from day 3 to day 7",decreased after the single administration
same,MTD at 168 h,"in vivo; mouse, in vivo, po",40 mg/kg
same,mouse death,H22-luc; QW × 3,One mouse in the compound I group died from ascites on day 20
same,TGI,"H22-luc; QW × 3, BLI 21 days post-dose, P < 0.0001",87.0%
same,half-life at 1 µM,in vitro,1.7 h
same,microsomal CLint at 1 µM,in vitro,13.7 µL/min/mg
"C=C1[C@H](CO)[C@@H](O)C[C@@H]1n1cnc2c(=O)[nH]c(N)nc21 [ETV, entecavir, reference compound]",levels of surface antigens HBeAg and HBsAg,hepatitis B virus (HBV); supernatant ELISA day 13,did not reduce
same,level of HBV DNA,hepatitis B virus (HBV); supernatant qPCR day 13,significantly inhibited
"CCCC[C@](C)(CO)Nc1nc(N)nc2cc(F)cnc12 [GS-9688, reference compound]",Mean drug concentration (liver),[1]; 24h,BLOQ
same,Mean drug concentration (plasma),[1]; 24h,BLOQ
same,concentration at 0.25 h,[1]; [9],907 ng/g
same,concentration at 1 h,[1]; [9],224 ng/g
same,concentration at 4 h,[1]; [9],207 ng/g
same,AUC(0-t),"[1]; ICR, mouse, liver, po, 10 mg/kg",1180 ng·h/mL
same,Kp,[1]; [10],3.5
same,Kp at 0.25 h,[1]; [10],2.49
same,Kp at 1 h,[1]; [10],3.16
same,Kp at 4 h,[1]; [10],15
same,Kp,"[1]; ICR, mouse, liver/plasma, po, 10 mg/kg",3.5
same,concentration at 0.25 h,[1]; [11],364 ng/mL
same,concentration at 1 h,[1]; [11],70.9 ng/mL
same,concentration at 4 h,[1]; [11],13.8 ng/mL
same,AUC(0-t),"[1]; ICR, mouse, plasma, po, 10 mg/kg",336 ng·h/mL
same,IFN-α stimulating activity,[5],essentially failed to activate IFN-α
CNC(=O)c1cc(Oc2ccc(NC(=O)Nc3ccc(Cl)c(C(F)(F)F)c3)cc2)ccn1 [sorafenib],median survival,"[6]; patients with advanced unresectable HCC (N = 602), placebo 7.9 months",10.7 months
same,progression-free survival,[6]; placebo 84 days,167 days
same,ORR,[7],7%
same,mOS,[7],14.7 months
